Key:
[1] = target: NT-3 growth factor receptor (Mus musculus) (UniProt Q6VNS1); assay: Survival of TrkC receptor transfected NIH3T3 cells with suboptimal NT-3 (100 pM); format: functional, cell-based
[2] = target: NT-3 growth factor receptor (Mus musculus) (UniProt Q6VNS1); assay: Survival of TrkC receptor transfected NIH3T3 cells at 50 uM with 100 pM NT-3; format: functional, cell-based
[3] = target: NT-3 growth factor receptor (Mus musculus) (UniProt Q6VNS1); assay: Survival of TrkC receptor transfected NIH3T3 cells at 10 uM without NT-3; format: functional, cell-based
[4] = target: NT-3 growth factor receptor (Mus musculus) (UniProt Q6VNS1); assay: Survival of TrkC receptor transfected NIH3T3 cells at 10 uM with 100 pM NT-3; format: functional, cell-based
[5] = target: NT-3 growth factor receptor (Mus musculus) (UniProt Q6VNS1); assay: Survival of TrkC receptor transfected NIH3T3 cells at 2 uM without NT-3; format: functional, cell-based
[6] = target: NT-3 growth factor receptor (Mus musculus) (UniProt Q6VNS1); assay: Survival of TrkC receptor transfected NIH3T3 cells without NT-3 (negative control); format: functional, cell-based
[7] = target: NT-3 growth factor receptor (Mus musculus) (UniProt Q6VNS1); assay: Survival of TrkC receptor transfected NIH3T3 cells with 2000 pM NT-3 (positive control); format: functional, cell-based
[8] = target: NT-3 growth factor receptor (Mus musculus) (UniProt Q6VNS1); assay: Survival of TrkC receptor transfected NIH3T3 cells at 50 uM without NT-3; format: functional, cell-based
[9] = target: NT-3 growth factor receptor (Mus musculus) (UniProt Q6VNS1); assay: Survival of TrkC receptor transfected NIH3T3 cells at o.4 uM with 100 pM NT-3; format: functional, cell-based
[10] = target: High affinity nerve growth factor receptor (Homo sapiens) (UniProt P04629); assay: Binding of FITCanti-TrkA-Ab to human TrkA receptor transfected NIH3T3 cells (positive control); format: cell-based
[11] = target: NT-3 growth factor receptor (Mus musculus) (UniProt Q6VNS1); assay: Survival of TrkC receptor transfected NIH3T3 cells at 2 uM with 100 pM NT-3; format: functional, cell-based
[12] = target: NT-3 growth factor receptor (Mus musculus) (UniProt Q6VNS1); assay: Binding of FITCanti-TrkC-Ab to TrkC receptor transfected NIH3T3 cells (positive control); format: cell-based
[13] = system: NIH3T3; assay: Binding of irrelevant FITC-Ab to NIH3T3 cells (negative control); format: functional, Mus musculus
[14] = target: NT-3 growth factor receptor (Mus musculus) (UniProt Q6VNS1); assay: Survival of TrkC receptor transfected NIH3T3 cells at o.4 uM without NT-3; format: functional, cell-based
[15] = target: NT-3 growth factor receptor (Mus musculus) (UniProt Q6VNS1); assay: Binding affinity for TrkC receptor transfected cells at 20 uM without NT-3
[16] = target: NT-3 growth factor receptor (Mus musculus) (UniProt Q6VNS1); assay: Binding affinity for TrkC receptor transfected cells at 20 uM with 2 nM NT-3
[17] = target: NT-3 growth factor receptor (Mus musculus) (UniProt Q6VNS1); assay: Binding affinity for TrkC receptor transfected cells at 20 uM with 20 nM anti-TrkC-Ab
[18] = target: High affinity nerve growth factor receptor (Homo sapiens) (UniProt P04629); assay: Binding affinity for TrkA receptor transfected NIH3T3 cells at 20 uM with 2 nM NGF; format: cell-based
[19] = target: High affinity nerve growth factor receptor (Homo sapiens) (UniProt P04629); assay: Binding affinity for TrkA receptor transfected NIH3T3 cells at 20 uM without NGF; format: cell-based
[20] = system: NIH3T3; assay: Binding affinity for NIH3T3 cells at 20 uM (negative control); format: functional, Mus musculus

Sequence of NT-3 growth factor receptor (Mus musculus) (Q6VNS1 whole entry): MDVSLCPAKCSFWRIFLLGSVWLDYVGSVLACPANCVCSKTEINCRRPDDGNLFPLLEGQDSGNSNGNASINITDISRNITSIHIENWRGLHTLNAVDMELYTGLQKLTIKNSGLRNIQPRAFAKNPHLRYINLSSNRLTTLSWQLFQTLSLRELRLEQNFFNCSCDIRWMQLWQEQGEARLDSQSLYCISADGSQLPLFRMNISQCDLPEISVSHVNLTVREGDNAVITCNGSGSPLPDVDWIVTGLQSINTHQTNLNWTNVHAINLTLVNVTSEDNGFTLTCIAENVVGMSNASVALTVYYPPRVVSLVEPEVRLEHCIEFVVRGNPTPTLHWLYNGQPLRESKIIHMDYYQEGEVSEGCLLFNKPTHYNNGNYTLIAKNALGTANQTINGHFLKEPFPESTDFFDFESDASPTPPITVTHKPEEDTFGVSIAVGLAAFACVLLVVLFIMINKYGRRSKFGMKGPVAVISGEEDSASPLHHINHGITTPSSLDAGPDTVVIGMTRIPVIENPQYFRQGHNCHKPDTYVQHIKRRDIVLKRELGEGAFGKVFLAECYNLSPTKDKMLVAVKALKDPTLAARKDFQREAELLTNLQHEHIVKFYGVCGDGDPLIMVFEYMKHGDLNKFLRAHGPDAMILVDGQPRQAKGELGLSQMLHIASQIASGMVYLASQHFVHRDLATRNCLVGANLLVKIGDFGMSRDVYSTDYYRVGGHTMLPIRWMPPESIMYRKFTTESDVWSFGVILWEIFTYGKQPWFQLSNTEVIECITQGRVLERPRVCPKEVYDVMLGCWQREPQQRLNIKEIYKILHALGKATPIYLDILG
Sequence of High affinity nerve growth factor receptor (Homo sapiens) (P04629 33-796 limits assumed): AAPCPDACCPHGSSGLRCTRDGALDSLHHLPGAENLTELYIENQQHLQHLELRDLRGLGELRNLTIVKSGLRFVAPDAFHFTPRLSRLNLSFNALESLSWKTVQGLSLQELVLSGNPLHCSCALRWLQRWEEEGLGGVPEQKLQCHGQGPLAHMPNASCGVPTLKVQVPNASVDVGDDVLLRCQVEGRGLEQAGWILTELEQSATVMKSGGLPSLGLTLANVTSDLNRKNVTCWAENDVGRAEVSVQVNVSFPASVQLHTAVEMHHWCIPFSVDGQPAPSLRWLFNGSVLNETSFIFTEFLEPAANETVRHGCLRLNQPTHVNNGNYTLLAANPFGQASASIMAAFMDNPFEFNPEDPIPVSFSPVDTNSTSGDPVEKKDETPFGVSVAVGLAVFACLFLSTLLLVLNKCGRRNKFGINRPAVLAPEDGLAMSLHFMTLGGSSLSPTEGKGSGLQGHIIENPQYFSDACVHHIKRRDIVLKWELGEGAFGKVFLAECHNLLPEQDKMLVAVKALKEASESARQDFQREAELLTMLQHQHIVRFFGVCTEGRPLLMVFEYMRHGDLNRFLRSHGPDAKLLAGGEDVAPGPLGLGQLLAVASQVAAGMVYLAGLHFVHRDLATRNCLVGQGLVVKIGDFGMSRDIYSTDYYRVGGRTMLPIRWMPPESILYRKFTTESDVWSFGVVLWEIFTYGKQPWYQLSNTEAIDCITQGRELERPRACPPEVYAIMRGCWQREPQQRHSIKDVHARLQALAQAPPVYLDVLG

Row | Max binding [15] [%] | Max binding [16] [%] | Max binding [17] [%] | Max binding [18] [%] | Max binding [19] [%] | SMILES | Survival [1] [%] | Survival [2] [%] | Survival [3] [%] | Survival [4] [%] | Survival [5] [%] | Survival [6] [%] | Survival [7] [%] | Survival [8] [%] | Survival [9] [%] | Max binding [10] [%] | Survival [11] [%] | Max binding [12] [%] | Max binding [13] [%] | Survival [14] [%] | Max binding [20] [%]
1 | – | – | – | – | – | NCCCC[C@@H]1NC(=O)c2cc([N+](=O)[O-])ccc2NCc2ccc(C(N)=O)cc2NC(=O)[C@H](CO)NC1=O | 26 | 36 | 0.4 | 38 | 0.1 | 0 | 100 | 0.2 | 32 | 71 | 33 | 22 | 14 | 0.2 | –
2 | 11 | 42 | 40 | 9 | 22 | NCCCC[C@@H]1NC(=O)c2cc(NC(=O)CC/N=C(S)/N=C3/C=CC(=C4c5ccc(O)cc5Oc5cc(O)ccc54)C(C(=O)O)=C3)ccc2NCc2ccc(C(N)=O)cc2NC(=O)[C@H](CO)NC1=O | – | – | – | – | – | – | – | – | – | – | – | – | – | – | 14
